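1) Cells in 96-well plates. 2) Compound, 48 h, 5 concentrations. 3) Linear interpolation between surrounding doses. 4) Unreached endpoint = highest concentration. GI50: concentration for 50% inhibition of growth. The concentration for full growth arrest is given as TGI.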
Experiments:
Assay in all cases: DTP human tumour cell line panel, 48 h
786-0 renal = tested on: 786-0 renal
A498 renal = tested on: A498 renal
A549 NSCLC = tested on: A549 NSCLC
ACHN renal = tested on: ACHN renal
BT-549 breast = tested on: BT-549 breast
CAKI-1 renal = tested on: CAKI-1 renal
CCRF-CEM leukemia = tested on: CCRF-CEM leukemia
COLO 205 colon = tested on: COLO 205 colon
DU-145 prostate = tested on: DU-145 prostate
EKVX NSCLC = tested on: EKVX NSCLC
HCC-2998 colon = tested on: HCC-2998 colon
HCT-116 colon = tested on: HCT-116 colon
HCT-15 colon = tested on: HCT-15 colon
HL-60(TB) leukemia = tested on: HL-60(TB) leukemia
HOP-62 NSCLC = tested on: HOP-62 NSCLC
HOP-92 NSCLC = tested on: HOP-92 NSCLC
HS 578T breast = tested on: HS 578T breast
HT29 colon = tested on: HT29 colon
IGROV1 ovarian = tested on: IGROV1 ovarian
K-562 leukemia = tested on: K-562 leukemia
KM12 colon = tested on: KM12 colon
LOX IMVI melanoma = tested on: LOX IMVI melanoma
M14 melanoma = tested on: M14 melanoma
MALME-3M melanoma = tested on: MALME-3M melanoma
MCF7 breast = tested on: MCF7 breast
MDA-MB-231 breast = tested on: MDA-MB-231 breast
MDA-MB-435 = tested on: MDA-MB-435
MDA-MB-468 breast = tested on: MDA-MB-468 breast
MOLT-4 leukemia = tested on: MOLT-4 leukemia
NCI-H226 lung = tested on: NCI-H226 lung
NCI-H23 lung = tested on: NCI-H23 lung
NCI-H460 lung = tested on: NCI-H460 lung
NCI-H522 lung = tested on: NCI-H522 lung
NCI/ADR-RES ovarian = tested on: NCI/ADR-RES ovarian
OVCAR-3 ovarian = tested on: OVCAR-3 ovarian
OVCAR-4 ovarian = tested on: OVCAR-4 ovarian
OVCAR-5 ovarian = tested on: OVCAR-5 ovarian
OVCAR-8 ovarian = tested on: OVCAR-8 ovarian
PC-3 prostate = tested on: PC-3 prostate
RPMI-8226 leukemia = tested on: RPMI-8226 leukemia
RXF 393 renal = tested on: RXF 393 renal
SF-268 CNS = tested on: SF-268 CNS
SF-295 CNS = tested on: SF-295 CNS
SF-539 CNS = tested on: SF-539 CNS
SK-MEL-2 melanoma = tested on: SK-MEL-2 melanoma
SK-MEL-28 melanoma = tested on: SK-MEL-28 melanoma
SK-MEL-5 melanoma = tested on: SK-MEL-5 melanoma
SK-OV-3 ovarian = tested on: SK-OV-3 ovarian
SN12C renal = tested on: SN12C renal
SNB-19 CNS = tested on: SNB-19 CNS
SNB-75 CNS = tested on: SNB-75 CNS
SR leukemia = tested on: SR leukemia
SW-620 colon = tested on: SW-620 colon
T-47D breast = tested on: T-47D breast
TK-10 renal = tested on: TK-10 renal
U251 CNS = tested on: U251 CNS
UACC-257 melanoma = tested on: UACC-257 melanoma
UACC-62 melanoma = tested on: UACC-62 melanoma
UO-31 renal = tested on: UO-31 renal

## CC(C)NC(=O)c1cc(-c2ccc(NC(=O)Nc3ccc(N4CCN(C)CC4)c(C(F)(F)F)c3)cc2)nc2cccnc12
786-0 renal
  GI50: 1650 nM
  TGI: 3340 nM
A498 renal
  GI50: 13500 nM
  TGI: 19300 nM
A549 NSCLC
  GI50: 6500 nM
  TGI: 12800 nM
ACHN renal
  GI50: 2030 nM
  TGI: 3740 nM
BT-549 breast
  GI50: 1370 nM
  TGI: 6310 nM
CAKI-1 renal
  GI50: 1960 nM
  TGI: 3740 nM
CCRF-CEM leukemia
  GI50: 539 nM
  TGI: 3820 nM
COLO 205 colon
  GI50: 2370 nM
  TGI: 5560 nM
DU-145 prostate
  GI50: 2180 nM
  TGI: 4150 nM
EKVX NSCLC
  GI50: 2190 nM
  TGI: 4300 nM
HCC-2998 colon
  GI50: 2090 nM
  TGI: 3960 nM
HCT-116 colon
  GI50: 2060 nM
  TGI: 3920 nM
HCT-15 colon
  GI50: 2100 nM
  TGI: 4200 nM
HL-60(TB) leukemia
  GI50: 572 nM
  TGI: 3180 nM
HOP-62 NSCLC
  GI50: 2240 nM
  TGI: 4730 nM
HOP-92 NSCLC
  GI50: 980 nM
  TGI: 2940 nM
HS 578T breast
  GI50: 1360 nM
  TGI: 7500 nM
HT29 colon
  GI50: 1950 nM
  TGI: 3980 nM
IGROV1 ovarian
  GI50: 1740 nM
  TGI: 3550 nM
K-562 leukemia
  GI50: 2790 nM
  TGI: 33400 nM
KM12 colon
  GI50: 2430 nM
  TGI: 5120 nM
LOX IMVI melanoma
  GI50: 1950 nM
  TGI: 3620 nM
M14 melanoma
  GI50: 2000 nM
  TGI: 4130 nM
MALME-3M melanoma
  GI50: 1650 nM
  TGI: 3320 nM
MCF7 breast
  GI50: 397 nM
  TGI: 2790 nM
MDA-MB-231 breast
  GI50: 820 nM
  TGI: 2030 nM
MDA-MB-435
  GI50: 1940 nM
  TGI: 3880 nM
MDA-MB-468 breast
  GI50: 801 nM
  TGI: 2290 nM
MOLT-4 leukemia
  GI50: 1050 nM
  TGI: 4190 nM
NCI-H226 lung
  GI50: 6130 nM
  TGI: 14800 nM
NCI-H23 lung
  GI50: 2230 nM
  TGI: 4440 nM
NCI-H460 lung
  GI50: 2110 nM
  TGI: 4040 nM
NCI-H522 lung
  GI50: 2010 nM
  TGI: 4020 nM
NCI/ADR-RES ovarian
  GI50: 3290 nM
  TGI: 9350 nM
OVCAR-3 ovarian
  GI50: 1910 nM
  TGI: 3940 nM
OVCAR-4 ovarian
  GI50: 2210 nM
  TGI: 5180 nM
OVCAR-5 ovarian
  GI50: 1980 nM
  TGI: 3810 nM
OVCAR-8 ovarian
  GI50: 2160 nM
  TGI: 4810 nM
PC-3 prostate
  GI50: 1820 nM
  TGI: 4810 nM
RPMI-8226 leukemia
  GI50: 2000 nM
  TGI: 7820 nM
RXF 393 renal
  GI50: 1070 nM
  TGI: 2890 nM
SF-268 CNS
  GI50: 6090 nM
  TGI: 16800 nM
SF-295 CNS
  GI50: 1830 nM
  TGI: 3570 nM
SF-539 CNS
  GI50: 1510 nM
  TGI: 3060 nM
SK-MEL-2 melanoma
  GI50: 2720 nM
  TGI: 6500 nM
SK-MEL-28 melanoma
  GI50: 1980 nM
  TGI: 3680 nM
SK-MEL-5 melanoma
  GI50: 2070 nM
  TGI: 3760 nM
SK-OV-3 ovarian
  GI50: 4850 nM
  TGI: 16200 nM
SN12C renal
  GI50: 1810 nM
  TGI: 3530 nM
SNB-19 CNS
  GI50: 2090 nM
  TGI: 4750 nM
SNB-75 CNS
  GI50: 657 nM
  TGI: 4940 nM
SR leukemia
  GI50: 2290 nM
  TGI: 7450 nM
SW-620 colon
  GI50: 1790 nM
  TGI: 3740 nM
T-47D breast
  GI50: 1710 nM
  TGI: 31000 nM
TK-10 renal
  GI50: 2240 nM
  TGI: 4180 nM
U251 CNS
  GI50: 1740 nM
  TGI: 3550 nM
UACC-257 melanoma
  GI50: 2090 nM
  TGI: 4200 nM
UACC-62 melanoma
  GI50: 2110 nM
  TGI: 4130 nM
UO-31 renal
  GI50: 1760 nM
  TGI: 3390 nM

## O=C(N/N=C/c1ccc(-c2ccc(O)cc2)o1)c1[nH]c2ccc(Br)cc2c1-c1ccccc1
786-0 renal
  GI50: 1550 nM
  TGI: 8430 nM
A498 renal
  GI50: 8210 nM
  TGI: 21900 nM
A549 NSCLC
  GI50: 987 nM
  TGI: 16200 nM
ACHN renal
  GI50: 500 nM
  TGI: 8070 nM
BT-549 breast
  GI50: 415 nM
  TGI: 3740 nM
CAKI-1 renal
  GI50: 969 nM
  TGI: 15500 nM
CCRF-CEM leukemia
  GI50: 474 nM
  TGI: 26900 nM
COLO 205 colon
  GI50: 1900 nM
  TGI: 3930 nM
DU-145 prostate
  GI50: 366 nM
  TGI: 3850 nM
EKVX NSCLC
  GI50: 3440 nM
  TGI: 15200 nM
HCC-2998 colon
  GI50: 860 nM
  TGI: 3670 nM
HCT-116 colon
  GI50: 393 nM
  TGI: 3550 nM
HCT-15 colon
  GI50: 354 nM
  TGI: 5300 nM
HL-60(TB) leukemia
  GI50: 257 nM
  TGI: 713 nM
HOP-62 NSCLC
  GI50: 870 nM
  TGI: 19200 nM
HOP-92 NSCLC
  GI50: 2750 nM
  TGI: 11200 nM
HS 578T breast
  GI50: 410 nM
  TGI: 1290 nM
HT29 colon
  GI50: 1920 nM
  TGI: 7020 nM
IGROV1 ovarian
  GI50: 617 nM
  TGI: 17800 nM
K-562 leukemia
  GI50: 371 nM
  TGI: 17900 nM
KM12 colon
  GI50: 355 nM
  TGI: 4510 nM
LOX IMVI melanoma
  GI50: 356 nM
  TGI: 3220 nM
M14 melanoma
  GI50: 3330 nM
  TGI: 22800 nM
MALME-3M melanoma
  GI50: 2580 nM
  TGI: 22400 nM
MCF7 breast
  GI50: 332 nM
  TGI: 6660 nM
MDA-MB-231 breast
  GI50: 323 nM
  TGI: 790 nM
MDA-MB-435
  GI50: 248 nM
  TGI: 602 nM
MDA-MB-468 breast
  GI50: 318 nM
  TGI: 2660 nM
MOLT-4 leukemia
  GI50: 531 nM
  TGI: 5040 nM
NCI-H226 lung
  GI50: 2950 nM
  TGI: 22400 nM
NCI-H23 lung
  GI50: 378 nM
  TGI: 12700 nM
NCI-H460 lung
  GI50: 342 nM
  TGI: 1270 nM
NCI-H522 lung
  GI50: 208 nM
  TGI: 519 nM
NCI/ADR-RES ovarian
  GI50: 292 nM
  TGI: 592 nM
OVCAR-3 ovarian
  GI50: 275 nM
  TGI: 873 nM
OVCAR-4 ovarian
  GI50: 3560 nM
  TGI: 20800 nM
OVCAR-5 ovarian
  GI50: 515 nM
  TGI: 13800 nM
OVCAR-8 ovarian
  GI50: 363 nM
  TGI: 900 nM
PC-3 prostate
  GI50: 569 nM
  TGI: 14100 nM
RPMI-8226 leukemia
  GI50: 442 nM
  TGI: > 22200 nM
RXF 393 renal
  GI50: 414 nM
  TGI: 2180 nM
SF-268 CNS
  GI50: 654 nM
  TGI: 12700 nM
SF-295 CNS
  GI50: 611 nM
  TGI: 2900 nM
SF-539 CNS
  GI50: 240 nM
  TGI: 536 nM
SK-MEL-2 melanoma
  GI50: 378 nM
  TGI: 3680 nM
SK-MEL-28 melanoma
  GI50: 1960 nM
  TGI: 18000 nM
SK-MEL-5 melanoma
  GI50: 472 nM
  TGI: 1690 nM
SK-OV-3 ovarian
  GI50: 493 nM
  TGI: 16800 nM
SN12C renal
  GI50: 417 nM
  TGI: 2870 nM
SNB-19 CNS
  GI50: 577 nM
  TGI: 14600 nM
SNB-75 CNS
  GI50: 3130 nM
  TGI: 20000 nM
SR leukemia
  GI50: 490 nM
  TGI: 3230 nM
SW-620 colon
  GI50: 444 nM
  TGI: 16100 nM
T-47D breast
  GI50: 2670 nM
  TGI: 26500 nM
TK-10 renal
  GI50: 4560 nM
  TGI: 19600 nM
U251 CNS
  GI50: 419 nM
  TGI: 10300 nM
UACC-257 melanoma
  GI50: 4690 nM
  TGI: 23100 nM
UACC-62 melanoma
  GI50: 527 nM
  TGI: 15100 nM
UO-31 renal
  GI50: 2050 nM
  TGI: 16200 nM
